The target of the test is T1, VvHmpA (Vibrio vulnificus, UniProt Q8DCU2).
T1 construct: gene hmp; reconstituted with heme or FAD
Put plainly: FAD fluorometric assay after reconstitution. It counts as binding. The conditions noted are these: 10 μM protein incubated with 80 μM FAD, 1 h, room temperature; stoichiometry, no affinity constant.

T1 sequence (Q8DCU2 whole entry): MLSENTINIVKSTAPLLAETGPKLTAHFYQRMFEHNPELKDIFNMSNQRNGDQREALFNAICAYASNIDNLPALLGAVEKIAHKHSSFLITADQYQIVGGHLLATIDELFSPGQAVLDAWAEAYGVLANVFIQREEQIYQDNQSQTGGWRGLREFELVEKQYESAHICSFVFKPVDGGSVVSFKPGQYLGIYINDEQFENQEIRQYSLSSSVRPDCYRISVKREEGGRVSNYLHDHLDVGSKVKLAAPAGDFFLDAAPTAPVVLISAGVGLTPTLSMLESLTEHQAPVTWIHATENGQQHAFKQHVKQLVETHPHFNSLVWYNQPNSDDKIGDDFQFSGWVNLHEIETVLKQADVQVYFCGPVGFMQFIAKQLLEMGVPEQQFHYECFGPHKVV

Take `Cc1cc2nc3c(=O)[nH]c(=O)nc-3n(C[C@H](O)[C@H](O)[C@H](O)COP(=O)(O)OP(=O)(O)OC[C@H]3O[C@@H](n4cnc5c(N)ncnc54)[C@H](O)[C@@H]3O)c2cc1C` [FAD]: the “molecules of FAD per VvHmpA monomer” value worked out at 0.92 ± 0.12 molecules per monomer.

Source of the values: article PMC6768983, “Transcriptomic Identification and Biochemical Characterization of HmpA, a Nitric Oxide Dioxygenase, Essential for Pathogenesis of Vibrio vulnificus” (Frontiers in Microbiology, 2019).
